Laboratory results: ChEMBL document CHEMBL5346863, “Discovery of substituted benzyloxy-benzylamine inhibitors of acetyltransferase Eis and their anti-mycobacterial activity” (Eur J Med Chem, 2022)
≈ marks a conversion by molar mass, not a printed value. Calls of active or inactive are those of the source. The rule behind the calls is not given here.

How the values were obtained:
[1] = test system: Mycobacterium tuberculosis; test: Antibacterial activity against Mycobacterium tuberculosis H37Ra assessed as bacterial growth inhibition incubated 2 to 3 weeks by resazurin dye based assay; assay type: functional; details: time 2-3 weeks
Mycobacterium avium = test: Antibacterial activity against Mycobacterium avium ATCC 25291 assessed as bacterial growth inhibition incubated for 2 to 3 weeks by resazurin dye based assay; assay type: functional; details: time 2-3 weeks
[2] = test system: Mycobacteroides abscessus; test: Antibacterial activity against Mycobacterium abscessus ATCC 19977 assessed as bacterial growth inhibition incubated for 2 to 3 weeks by resazurin dye based assay; assay type: functional; details: time 2-3 weeks
[3] = test system: Mycolicibacterium smegmatis; test: Antibacterial activity against Mycobacterium smegmatis mc2 122 assessed as bacterial growth inhibition incubated for 2 to 3 weeks by resazurin dye based assay; assay type: functional; details: time 2-3 weeks
[4] = test system: Mycobacterium tuberculosis; test: Antibacterial activity against Mycobacterium tuberculosis mc2 6230 assessed as bacterial growth inhibition incubated 2 to 3 weeks by resazurin dye based assay; assay type: functional; details: time 2-3 weeks
N-acetyltransferase Eis = target: T1, N-acetyltransferase Eis (Mycobacterium tuberculosis (strain ATCC 25618 / H37Rv), UniProt P9WFK7); test: Inhibition of wild-type Mycobacterium tuberculosis Eis expressed in Escherichia coli BL21(DE3) cells incubated for 5 mins by Ellman's method
T1 sequence (P9WFK7 whole entry): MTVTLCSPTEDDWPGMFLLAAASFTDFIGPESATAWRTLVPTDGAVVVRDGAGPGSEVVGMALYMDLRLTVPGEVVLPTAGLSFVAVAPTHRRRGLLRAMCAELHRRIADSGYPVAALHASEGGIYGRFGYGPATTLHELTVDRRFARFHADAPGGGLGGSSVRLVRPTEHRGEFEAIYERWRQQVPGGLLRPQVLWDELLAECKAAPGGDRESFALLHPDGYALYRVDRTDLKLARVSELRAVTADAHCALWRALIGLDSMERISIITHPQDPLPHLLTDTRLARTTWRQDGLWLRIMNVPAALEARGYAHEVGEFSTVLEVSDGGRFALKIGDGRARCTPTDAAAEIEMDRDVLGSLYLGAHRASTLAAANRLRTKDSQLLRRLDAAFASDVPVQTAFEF

[5] = test system: Mycobacterium tuberculosis; test: Antibacterial activity against Mycobacterium tuberculosis H37Rv assessed as MIC of kanamycin A at 100 uM incubated for 24 hrs followed by kanamycin A addition measured after 6 days by alamarblue dye based assay; assay type: functional; details: for Activity: time 7.0 day; for MIC: 168 h, time 7 day
[6] = test system: Mycobacterium intracellulare; test: Antibacterial activity against Mycobacterium intracellulare ATCC 13950 assessed as bacterial growth inhibition incubated for 2 to 3 weeks by resazurin dye based assay; assay type: functional; details: time 2-3 weeks
[7] = test system: Mycobacterium tuberculosis; test: Antibacterial activity against Mycobacterium tuberculosis K204 assessed as MIC of kanamycin A at 54.8 uM incubated for 24 hrs followed by kanamycin A addition measured after 6 days by alamarblue dye based assay; assay type: functional, organism-based; details: time 7.0 day
[8] = test system: Mycobacterium tuberculosis; test: Antibacterial activity against Mycobacterium tuberculosis H37Rv assessed as MIC of kanamycin A at 54.8 uM incubated for 24 hrs followed by kanamycin A addition measured after 6 days by alamarblue dye based assay; assay type: functional, organism-based; details: time 7.0 day
[9] = test system: Mycobacterium parascrofulaceum; test: Antibacterial activity against Mycobacterium parascrofulaceum ATCC BAA-614 assessed as bacterial growth inhibition incubated for 2 to 3 weeks by resazurin dye based assay; assay type: functional; details: time 2-3 weeks
J774.1 = test: Cytotoxicity against mouse J774.1 cells upto 12.5 uM incubated for 24 hrs by resazurin dye based cell viability assay; assay type: toxicity; details: j774.1, 24 h
A549 = test: Cytotoxicity against human A549 cells upto 12.5 uM incubated for 24 hrs by resazurin dye based cell viability assay; assay type: toxicity; details: a549, 24 h
HEK293 = test: Cytotoxicity against HEK293 cells upto 12.5 uM incubated for 24 hrs by resazurin dye based cell viability assay; assay type: toxicity; details: human, hek293, 24 h
[10] = test system: Mycobacterium tuberculosis; test: Antibacterial activity against Mycobacterium tuberculosis K204 assessed as MIC of kanamycin A at 95.9 uM incubated for 24 hrs followed by kanamycin A addition measured after 6 days by alamarblue dye based assay; assay type: functional, organism-based; details: time 7.0 day
[11] = test system: Mycobacterium tuberculosis; test: Antibacterial activity against Mycobacterium tuberculosis H37Rv assessed as MIC of kanamycin A at 95.9 uM incubated for 24 hrs followed by kanamycin A addition measured after 6 days by alamarblue dye based assay; assay type: functional, organism-based; details: time 7.0 day
[12] = test system: Mycobacterium tuberculosis; test: Antibacterial activity against Mycobacterium tuberculosis H37Rv assessed as MIC of kanamycin A at 71.7 uM incubated for 24 hrs followed by kanamycin A addition measured after 6 days by alamarblue dye based assay; assay type: functional, organism-based; details: time 7.0 day
[13] = test system: Mycobacterium tuberculosis; test: Antibacterial activity against Mycobacterium tuberculosis K204 assessed as MIC of kanamycin A at 71.7 uM incubated for 24 hrs followed by kanamycin A addition measured after 6 days by alamarblue dye based assay; assay type: functional, organism-based; details: time 7.0 day

`CC(C)(C)c1ccc(COc2ccc(CNCc3ccccc3)cc2)cc1` was tested, and the MIC [1] was 1 µM (≈ 0.36 µg/mL), the MIC (Mycobacterium avium) was 31.3 µM (≈ 11.3 µg/mL) and the MIC [2] was 7.8 µM (≈ 2.8 µg/mL). For the same compound, the MIC [3] was 3.9 µM (≈ 1.4 µg/mL), the MIC [4] was 12.5 µM (≈ 4.49 µg/mL) and the IC50 (N-acetyltransferase Eis) was > 200 µM.
`Clc1ccc(COc2cccc(CNCc3ccncc3)c2)cc1` was tested, and the MIC [1] was 31.3 µM (≈ 10.6 µg/mL), the MIC (Mycobacterium avium) was > 62.5 µM and the MIC [2] was > 62.5 µM. The Activity [5] was “Active”, the MIC [6] was 31.3 µM (≈ 10.6 µg/mL) and the MIC [4] was 50 µM (≈ 16.9 µg/mL). For the same compound, the IC50 (N-acetyltransferase Eis) was ~20 µM, the Activity [7] was “Active” and the Activity [8] was “Active”.
For `c1ccc(COc2ccc(CNCc3ccncc3)cc2)cc1`, the MIC [1] was > 62.5 µM, the MIC (Mycobacterium avium) was 2 µM (≈ 0.609 µg/mL) and the MIC [2] was > 62.5 µM. The MIC [6] was 62.5 µM (≈ 19 µg/mL), the MIC [3] was > 62.5 µM and the MIC [4] was 50 µM (≈ 15.2 µg/mL). It also gave an IC50 (N-acetyltransferase Eis) of ~40 µM.
For `Brc1ccc(COc2ccccc2CNCc2ccncc2)cc1`, the MIC (Mycobacterium avium) was > 62.5 µM, the MIC [2] was > 62.5 µM and the MIC [5] was ≤ 1.25 µg/mL. The MIC [3] was > 62.5 µM, the MIC [4] was 25 µM (≈ 9.58 µg/mL) and the IC50 (N-acetyltransferase Eis) was 4.3 µM.
`c1ccc(COc2ccccc2CNCc2ccncc2)cc1` was tested, and the MIC [1] was 125 µM (≈ 38 µg/mL), the MIC (Mycobacterium avium) was > 62.5 µM and the MIC [2] was > 62.5 µM. For the same compound, the MIC [5] was 2.5 µg/mL, the MIC [6] was > 62.5 µM and the MIC [3] was > 62.5 µM. The MIC [9] was 62.5 µM (≈ 19 µg/mL), the MIC [4] was > 100 µM and the IC50 (N-acetyltransferase Eis) was ~40 µM.
For `Fc1ccc(COc2ccccc2CNCc2ccccc2)cc1`, the Activity (J774.1) was “Non-Toxic”, the MIC [1] was 31.3 µM (≈ 10.1 µg/mL) and the Activity (A549) was “Non-Toxic”. For the same compound, the Activity (HEK293) was “Non-Toxic”, the MIC (Mycobacterium avium) was > 62.5 µM and the MIC [2] was 31.3 µM (≈ 10.1 µg/mL). The Activity [5] was “Active”, the MIC [6] was 31.3 µM (≈ 10.1 µg/mL) and the MIC [3] was > 62.5 µM. The MIC [9] was 31.3 µM (≈ 10.1 µg/mL), the MIC [4] was 50 µM (≈ 16.1 µg/mL) and the IC50 (N-acetyltransferase Eis) was ~8 µM.
With `Brc1ccccc1COc1ccc(CNCc2ccccc2)cc1` the MIC [1] was 3.9 µM (≈ 1.49 µg/mL), the MIC (Mycobacterium avium) was 15.6 µM (≈ 5.96 µg/mL) and the MIC [2] was 31.3 µM (≈ 12 µg/mL). For the same compound, the MIC [6] was 3.9 µM (≈ 1.49 µg/mL), the MIC [3] was 1 µM (≈ 0.382 µg/mL) and the MIC [9] was 3.9 µM (≈ 1.49 µg/mL). For the same compound, the MIC [4] was 100 µM (≈ 38.2 µg/mL) and the IC50 (N-acetyltransferase Eis) was ~8 µM.
For `c1ccc(CNCc2ccccc2OCc2ccccc2)cc1`, the MIC (Mycobacterium avium) was > 62.5 µM, the Activity [5] was “Active” and the MIC [6] was 31.3 µM (≈ 9.5 µg/mL). For the same compound, the MIC [3] was > 62.5 µM, the MIC [9] was 15.6 µM (≈ 4.73 µg/mL) and the MIC [4] was 100 µM (≈ 30.3 µg/mL). For the same compound, the IC50 (N-acetyltransferase Eis) was ~15 µM.
`NCC[C@H](O)C(=O)N[C@@H]1C[C@H](N)[C@@H](O[C@H]2O[C@H](CN)[C@@H](O)[C@H](O)[C@H]2O)[C@H](O)[C@H]1O[C@H]1O[C@H](CO)[C@@H](O)[C@H](N)[C@H]1O` [AMIKACIN] was tested, and the MIC (Mycobacterium avium) was 3.9 µM (≈ 2.28 µg/mL), the MIC [2] was 1 µM (≈ 0.586 µg/mL) and the MIC [6] was ≤ 0.25 µM. The MIC [3] was ≤ 0.25 µM and the MIC [9] was 0.25 µM (≈ 0.146 µg/mL).
`Brc1ccc(COc2ccccc2CNCc2cccnc2)cc1` was tested, and the Activity (J774.1) was “Non-Toxic”, the Activity (A549) was “Non-Toxic” and the Activity (HEK293) was “Non-Toxic”. The MIC (Mycobacterium avium) was > 62.5 µM, the MIC [2] was > 62.5 µM and the Activity [5] was “Active”. The Activity [10] was “Active”, the MIC [6] was > 62.5 µM and the Activity [11] was “Active”. The MIC [9] was > 62.5 µM, the MIC [4] was 100 µM (≈ 38.3 µg/mL) and the IC50 (N-acetyltransferase Eis) was ~8 µM.
`Fc1ccc(COc2ccc(CNCc3ccccc3)cc2)cc1` was tested, and the MIC [1] was > 250 µM, the MIC (Mycobacterium avium) was > 62.5 µM and the MIC [2] was > 62.5 µM. The MIC [6] was > 62.5 µM, the MIC [3] was > 62.5 µM and the MIC [9] was > 62.5 µM. The MIC [4] was > 100 µM and the IC50 (N-acetyltransferase Eis) was > 200 µM.
Compound `Clc1ccc(COc2cccc(CNCc3ccccc3)c2)cc1` has an MIC [1] of 15.6 µM (≈ 5.27 µg/mL), an MIC [2] of 31.3 µM (≈ 10.6 µg/mL) and an MIC [4] of 12.5 µM (≈ 4.22 µg/mL). For the same compound, the IC50 (N-acetyltransferase Eis) was 5.4 µM.
For `Fc1ccc(COc2ccc(CNCc3cccnc3)cc2)cc1`, the Activity [12] was “Active”, the MIC [1] was 31.3 µM (≈ 10.1 µg/mL) and the MIC (Mycobacterium avium) was > 62.5 µM. For the same compound, the MIC [2] was 31.3 µM (≈ 10.1 µg/mL), the Activity [5] was “Active” and the MIC [6] was 31.3 µM (≈ 10.1 µg/mL). For the same compound, the Activity [13] was “Active”, the MIC [4] was 50 µM (≈ 16.1 µg/mL) and the IC50 (N-acetyltransferase Eis) was 3.9 µM.
With `Fc1ccc(COc2cccc(CNCc3ccccc3)c2)cc1` the MIC [1] was 3.9 µM (≈ 1.25 µg/mL), the MIC (Mycobacterium avium) was 15.6 µM (≈ 5.01 µg/mL) and the MIC [2] was 31.3 µM (≈ 10.1 µg/mL). The MIC [4] was 50 µM (≈ 16.1 µg/mL) and the IC50 (N-acetyltransferase Eis) was 7.3 µM.
